Tests used:
[1] = system: Tobacco (Nicotiana benthamiana); assay: Test Example 4: reduction of low-temperature stress in hydroponics of tobacco; assay type: in vivo; conditions: 10 ppm in medium; 1.5±1.0° C. for 7 days, then 3 days at 22° C.
Experimental: Tobacco (Nicotiana benthamiana)
DMSO solutions containing each of the present compounds 1 to 4 at a concentration of 10,000 ppm were prepared. A 1/1,000 volume of each DMSO solution was added to a Murashige-and-Skoog medium (a medium containing 2.3 g of a mixture of salts for Murashige-and-Skoog medium (manufactured by Wako. Pure Chemical Industries, Ltd.), 200 mg of myoinositol (manufactured by Sigma-Aldrich), 2 mg of nicotinic acid (manufactured by Wako Pure Chemical Industries, Ltd.), 2 mg of pyridoxine hydrochloride (manufactured by Wako Pure Chemical Industries, Ltd.), 20 mg of thiamine hydrochloride (manufactured by Wako Pure Chemical Industries, Ltd.), 20 g of sucrose (manufactured by Wako Pure Chemical Industries, Ltd.), 1 g of MES (manufactured by DOJINDO LABORATORIES) in 1 L of water, adjusted to pH 5.8) at ½ concentration to obtain a medium containing the test compound at a concentration of 10 ppm. These media were used in the treated-group.
In a non-treated group, a medium obtained by adding a 1/1,000 volume of DMSO to a Murashige-and-Skoog medium at ½ concentration was used.
The seeds of tobacco (Nicotiana benthamiana) were sown on 5 μL of the medium, and incubated at 22° C. overnight. Thereto was added 45 μL of a medium containing each present compound at a concentration of 10 ppm, and cultivated for 7 days under the conditions of an illuminance of 4,000 lux, a temperature of 22° C. and a day length of 16 hours, thereby treating the seedlings of tobacco (Nicotiana benthamiana) with the test compound.
In the non-treated group, 45 μL of a medium obtained by adding a 1/1,000 volume of DMSO to a Murashige-and-Skoog medium at ½ concentration was added, and treated in the same manner as above.
The seedlings of tobacco (Nicotiana benthamiana) treated with the present compounds were cultivated for 7 days under the conditions of an illuminance of 2,000 lux, a temperature of 1.5±1.0° C., and a day length of 16 hours, thereby subjecting to low-temperature stress treatment.
The plants of tobacco (Nicotiana benthamiana) subjected to low-temperature stress treatment was cultivated for 3 days under the conditions of an illuminance of 4,000 lux, a temperature of 22° C., and a day length of 16 hours, and then the green leaf area of the plants was visually evaluated. Completely dead plant was scored as 0, the plant without low-temperature stress treatment was scored as 5, the green area was rated on a 6-point scale in ⅕ increments, and the score of not less than 1 was regarded as effective in reducing the stress. As a result of visual evaluation, the green leaf area of plants in the treated group, wherein the plants were treated with the present compound 1, 2, 3 or 4 was much larger than that in the non-treated group.

[2] = system: Wheat (cultivar: Apogee); assay: Test Example 6: reduction of high-temperature stress by spraying treatment of wheat; assay type: in vivo; conditions: 36° C./32° C. for 7 days, 90 days after stress
Experimental: Five wheat seeds were sown in the culture soil (AISAI) in each plastic pot and cultivated for 28 days in an artificial weather control room under the conditions of a temperature of 18° C. in daytime/15° C. in night, and an illuminance of 7,000 lux. Before the stress test, 3 individuals per pot were removed.
To 0.5 mg of the present compound 1 were added 120 mg of a mixture (weight ratio 1:1) of white carbon and ammonium polyoxyethylene alkyl ether sulfate and 300 μl of water. The mixture was finely ground by a wet grinding method to obtain a flowable formulation of the present compound 1. This flowable formulation was diluted with 50 ml or 500 ml of water. The mixture was diluted with RINO (manufactured by NIHON NOHYAKU CO., LTD) as a spreading agent to 5,000-fold dilution to obtain a spray solution containing 10 ppm or 1 ppm of the present compound 1. A sufficient amount of the spray solution was applied to the wheat seedlings by using an automatic spraying machine.
In addition, a flowable formulation without the present compound 1 was prepared and then sprayed. This is called as a non-treated group.
The tested plants at 28 days after the sowing were cultivated for 7 days in an artificial weather control room under the conditions of a temperature of 36° C. in daytime/32° C. in night, a humidity of 50% in daytime/60% in night, an illuminance of 7,000 lux, and a day length of 12 hours.
After the high-temperature stress treatment, the plants were cultivated for 4 days in an artificial weather control room under the conditions of a temperature of 18° C. in daytime/15° C. in night, and a illuminance of 7,000 lux. Then, 90 days after the high-temperature stress treatment, the number and the weight of seeds in ears of the tested plants in 7 or 8 pots were measured, and the average values of the number and the weight of seeds per one ear were calculated. As a result, the number and the weight of seeds in the wheat plants treated with the present compound 1 at a concentration of 1 ppm or 10 ppm were much larger those in the non-treated group, in which the wheat plants were not treated with the present compound 1.

O=C(O)c1cc2cc(C(F)(F)F)ccc2s1 [The present compound 1, 5-(trifluoromethyl)benzo[b]thiophene-2-carboxylic acid]
much larger: green leaf area of plants (visual evaluation) vs non-treated group [1] | number of seeds per ear vs non-treated group ([2]; spray 1 ppm) | weight of seeds per ear vs non-treated group ([2]; spray 1 ppm) | number of seeds per ear vs non-treated group ([2]; spray 10 ppm) | weight of seeds per ear vs non-treated group ([2]; spray 10 ppm)
